target: human SOS1 (SOS1) with human K-RasG12C (Homo sapiens (Human), UniProt Q07889); assay: hK-RasG12C interaction assay with hSOS1 (HTRF); assay type: binding; settings: GST-hK-RasG12C and His-hSOS1, 60 min incubation at 20° C, mean, read-out: K-RasG12C - SOS interaction assay IC50 - [mol/l] (mean)
Sequence (Q07889 564-1049): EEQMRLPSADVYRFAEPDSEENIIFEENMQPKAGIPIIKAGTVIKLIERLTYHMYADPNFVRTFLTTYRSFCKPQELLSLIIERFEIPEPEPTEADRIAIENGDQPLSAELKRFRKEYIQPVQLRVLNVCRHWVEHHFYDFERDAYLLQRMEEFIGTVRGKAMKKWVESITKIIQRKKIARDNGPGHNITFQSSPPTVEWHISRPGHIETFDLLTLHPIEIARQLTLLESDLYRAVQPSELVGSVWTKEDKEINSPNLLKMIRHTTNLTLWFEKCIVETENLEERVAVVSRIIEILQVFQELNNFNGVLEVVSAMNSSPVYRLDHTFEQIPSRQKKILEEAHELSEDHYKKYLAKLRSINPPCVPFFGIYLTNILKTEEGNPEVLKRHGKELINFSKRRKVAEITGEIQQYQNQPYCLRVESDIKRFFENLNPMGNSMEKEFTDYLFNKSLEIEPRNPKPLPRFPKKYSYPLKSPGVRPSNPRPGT

IC50 [nM]	Structure (SMILES)
4.06	CC(=O)N1CC=C(c2cnc3ncnc(N[C@H](C)c4cccc(C(F)(F)F)c4C)c3c2)CC1 [Example 12, 1-{4-[4-({(1R)-1-[2-methyl-3-(trifluoromethyl)phenyl]ethyl}amino)pyrido[2,3-d]pyrimidin-6-yl]-3,6-dihydropyridin-1(2H)-yl}ethan-1-one]
6.46	CC(=O)N1CC[N+]([O-])(c2cnc3nc(C)nc(N[C@H](C)c4cccc(C(F)(F)F)c4C)c3c2)CC1 [Example 36, 1-{4-[2-methyl-4-({(1R)-1-[2-methyl-3-(trifluoromethyl)phenyl]ethyl}amino)pyrido[2,3-d]pyrimidin-6-yl]-4-oxo-4lambda^5-piperazin-1-yl}ethan-1-one]
8.43	CC(=O)N1CCC(c2cnc3nc(C)nc(N[C@H](C)c4cccc(C(F)F)c4F)c3c2)CC1 [Example 44, 1-{4-[4-({(1R)-1-[3-(difluoromethyl)-2-fluorophenyl]ethyl}amino)-2-methylpyrido[2,3-d]pyrimidin-6-yl]piperidin-1-yl}ethan-1-one]
9.79	CC(=O)N1C[C@H]2C[C@@H]1CN2c1cnc2nc(C)nc(N[C@H](C)c3cccc(C(F)(F)C(C)(C)O)c3F)c2c1 [Example 51, 1-{(1 R,4R)-5-[4-({(1R)-1-[3-(1,1-difluoro-2-hydroxy-2-methylpropyl)-2-fluorophenyl]ethyl}amino)-2-methylpyrido[2,3-d]pyrimidin-6-yl]-2,5-diazabicyclo[2.2.1]heptan-2-yl}ethan-1-one]
28.9	CC(=O)N1CCC(c2cc3c(N[C@H](C)c4cccc(C(F)(F)F)c4C)nc(C)nc3nc2C(F)(F)F)CC1 [Example 42, 1-{4-[2-methyl-4-({(1R)-1-[2-methyl-3-(trifluoromethyl)phenyl]ethyl}amino)-7-(trifluoromethyl)pyrido[2,3-d]pyrimidin-6-yl]piperidin-1-yl}ethan-1-one]
348	COc1nc2nc(C)nc(N[C@H](C)c3cccc(C(F)(F)F)c3C)c2cc1N1CC2(CN(C(C)=O)C2)C1 [Example 20, 1-{6-[7-methoxy-2-methyl-4-({(1R)-1-[2-methyl-3-(trifluoromethyl)phenyl]ethyl}amino)pyrido[2,3-d]pyrimidin-6-yl]-2,6-diazaspiro[3.3]heptan-2-yl}ethan-1-one]
13	Cc1nc(N[C@H](C)c2cccc(C(F)(F)F)c2C)c2cc(N3CCCS3(=O)=O)cnc2n1 [Example 34, 2-[2-methyl-4-({(1R)-1-[2-methyl-3-(trifluoromethyl)phenyl]ethyl}amino)pyrido[2,3-d]pyrimidin-6-yl]-1 lambda^6,2-thiazolidine-1,1-dione]
5.72	CC(=O)N1CC=C(c2cc3c(N[C@H](C)c4cccc(C(F)(F)C(C)(C)O)c4F)nc(C)nc3nc2C)CC1 [Example 65, 1-{4-[4-({(1R)-1-[3-(1,1-difluoro-2-hydroxy-2-methylpropyl)-2-fluorophenyl]ethyl}amino)-2,7-dimethylpyrido[2,3-d]pyrimidin-6-yl]-3,6-dihydropyridin-1(2H)-yl}ethan-1-one]
5.75	CC(=O)N1CC=C(c2cnc3nc(C)nc(N[C@H](C)c4cccc(C(F)(F)F)c4C)c3c2)CC1 [Example 26, 1-{4-[2-methyl-4-({(1R)-1-[2-methyl-3-(trifluoromethyl)phenyl]ethyl}amino)pyrido[2,3-d]pyrimidin-6-yl]-3,6-dihydropyridin-1(2H)-yl}ethan-1-one hydrogen]

Source: patent US20230357239A1, “PYRIDO[2,3-D]PYRIMIDIN-4-AMINES AS SOS1 INHIBITORS” (Bayer Aktiengesellschaft, priority 2020, published 2023)
